Laboratory results published in US20060142359A1, “Cyclopenta[c]isoxazole-3-amines used as protective agents for materials” (priority 2002, published 2006).
In brackets after ≈: the same amount, converted by molar mass. Where two headings read alike, the source gives them in different places.

Legend:
Bacillus subtilis = experiment: MIC against bacteria on Landy agar (Use Example A); assay type: cell-based; settings: 72 h, 3 days at 28° C., 60-70% relative atmospheric humidity, read-out: Minimum inhibitory concentrations Bacillus subtilis
Procedure: (§1) A defined Landy Agar was admixed with active compounds according to the invention in concentrations of […]. The MIC was determined after 3 days of storage at 28° C. and 60-70% relative atmospheric humidity. The MIC is the lowest concentration of active compound at which there is no colonization by the microbial species used.

Pseudomonas aeroginosa = experiment: MIC against bacteria on Landy agar (Use Example A); assay type: cell-based; settings: 72 h, 3 days at 28° C., 60-70% relative atmospheric humidity, read-out: Minimum inhibitory concentrations Pseudomonas aeroginosa
Procedure: as §1

Aspergillus niger = experiment: MIC against fungi on malt extract agar (Use Example B); assay type: cell-based; settings: 504 h, 3 weeks at 28° C., 60-70% relative atmospheric humidity, read-out: Minimum inhibitory concentrations Aspergillus niger
Procedure: (§2) The MIC was determined after 3 weeks of storage at 28° C. and 60-70% relative atmospheric humidity. The MIC is the lowest concentration of active compound at which there is no colonization by the microbial species used.

Penicillium brevicaule = experiment: as above; assay type: cell-based; settings: 504 h, 3 weeks at 28° C., 60-70% relative atmospheric humidity, read-out: Minimum inhibitory concentrations Penicillium brevicaule
Procedure: as §2

Chaetomium globosum = experiment: as above; assay type: cell-based; settings: 504 h, 3 weeks at 28° C., 60-70% relative atmospheric humidity, read-out: Minimum inhibitory concentrations Chaetomium globosum
Procedure: as §2

[1] = tested on: Pseudomonas aeruginosa NCIB 6749; experiment: MIC antibacterial action (Use Example D, analogous to A); assay type: cell-based; settings: NCIB6749, 72 h
Procedure: as §1
Analogously to Use Example A, the minimum inhibitory concentrations (MIC) of active compounds according to the invention were determined. Both on chemically defined medium and on complex medium, the compounds tested had minimum inhibitory concentrations </=100 ppm against Pseudomonas aeruginosa NCIB 6749: […]

Geotrichum candidum = experiment: MIC antifungal action (Use Example C, analogous to B); assay type: cell-based; settings: analogously to Use Example B, read-out: minimum inhibitory concentrations (MIC) Geotrichum candidum
Procedure: (§3) An agar which had been prepared using malt extract was admixed with active compounds according to the invention in concentrations of from 0.1 mg/l to 5000 mg/l. The MIC was determined after 3 weeks of storage at 28° C. and 60-70% relative atmospheric humidity. The MIC is the lowest concentration of active compound at which there is no colonization by the microbial species used. Analogously to Use Example B, the minimum inhibitory concentrations (MIC) of active compounds according to the invention were determined. Against fungi such as Fusarium solani, Geotrichum candidum and Rhodotorula rubra the compounds tested had minimum inhibitory concentrations of <500 ppm: […]

Rhodotorula rubra = experiment: as above; assay type: cell-based; settings: analogously to Use Example B, read-out: minimum inhibitory concentrations (MIC) Rhodotorula rubra
Procedure: as §3

Fusarium solani = experiment: as above; assay type: cell-based; settings: analogously to Use Example B, read-out: minimum inhibitory concentrations (MIC) Fusarium solani
Procedure: as §3

[2] = chemically defined medium, read-out: MIC values (chem.def. medium)
[3] = complex medium, read-out: MIC values (complex medium)

SMILES: Nc1onc2c1CCC2 [Example 1, 5,6-dihydro-4H-cyclopenta[c]isoxazole-3-amine]
- MIC (Bacillus subtilis): < 40 µg/mL
- MIC (Pseudomonas aeroginosa): < 100 µg/mL
- MIC (Aspergillus niger): < 100 µg/mL
- MIC (Penicillium brevicaule): < 100 µg/mL
- MIC (Chaetomium globosum): < 100 µg/mL

SMILES: CNc1onc2c1CCC2 [Example 2, N-methyl-5,6-dihydro-4H-cyclopenta[c]isoxazole-3-amine]
- melting point: 52 °C

SMILES: CC(C)(C)C(=O)Nc1onc2c1CCC2 [Example 3, N-(5,6-dihydro-4H-cyclopenta[c]isoxazol-3-yl)-2,2-dimethylpropanamide]
- melting point: 113 °C

SMILES: O=C(Nc1ccccc1)Nc1onc2c1CCC2 [Example 5, N-(5,6-dihydro-4H-cyclopenta[c]isoxazol-3-yl)-N′-phenylurea]
- MIC (Bacillus subtilis): < 40 µg/mL
- MIC (Pseudomonas aeroginosa): < 100 µg/mL
- melting point: 202 °C
- MIC (Aspergillus niger): 200 µg/mL (≈ 822 µM)
- MIC (Penicillium brevicaule): 100 µg/mL (≈ 411 µM)
- MIC (Chaetomium globosum): 100 µg/mL (≈ 411 µM)

SMILES: CCCCNC(=S)Nc1onc2c1CCC2 [Example 6, N-butyl-N′-(5,6-dihydro-4H-cyclopenta[c]isoxazol-3-yl)thiourea]
- melting point: 93 °C

SMILES: O=S(=O)(Nc1onc2c1CCC2)c1ccccc1 [Example 7, N-(5,6-dihydro-4H-cyclopenta[c]isoxazol-3-yl)benzenesulfonamide]
- MIC (Bacillus subtilis): 100 µg/mL (≈ 378 µM)
- MIC (Pseudomonas aeroginosa): 400 µg/mL (≈ 1510 µM)
- melting point: 132 °C

SMILES: C(=N/c1onc2c1CCC2)/c1ccccc1 [Example 8, N-(5,6-dihydro-4H-cyclopenta[c]isoxazol-3-yl)-N-(-phenylmethylidene)amine]
- melting point: 166 °C

SMILES: CC(C)C(=O)Nc1onc2c1CCC2 [Example 12]
- melting point: 116 °C

SMILES: O=C(Nc1onc2c1CCC2)C(F)(F)F [Example 14]
- MIC (Bacillus subtilis): < 40 µg/mL
- MIC (Pseudomonas aeroginosa): < 100 µg/mL
- melting point: 118 °C
- MIC (Aspergillus niger): 100 µg/mL (≈ 454 µM)
- MIC (Penicillium brevicaule): 100 µg/mL (≈ 454 µM)
- MIC (Chaetomium globosum): 100 µg/mL (≈ 454 µM)

SMILES: CCCC(=O)N(C(=O)CCC)c1onc2c1CCC2 [Example 15]
- MIC (Bacillus subtilis): 100 µg/mL (≈ 378 µM)
- MIC (Pseudomonas aeroginosa): < 100 µg/mL
- MIC (Aspergillus niger): > 400 µg/mL
- MIC (Penicillium brevicaule): 200 µg/mL (≈ 757 µM)
- MIC (Chaetomium globosum): 100 µg/mL (≈ 378 µM)

SMILES: CC(C)CC(=O)N(C(=O)CC(C)C)c1onc2c1CCC2 [Example 16]
- melting point: 35 °C

SMILES: O=C(c1ccco1)N(C(=O)c1ccco1)c1onc2c1CCC2 [Example 17]
- melting point: 150 °C

SMILES: O=C(Nc1onc2c1CCC2)NC1CCCCC1 [Example 19]
- MIC (Bacillus subtilis): 100 µg/mL (≈ 401 µM)
- MIC (Pseudomonas aeroginosa): 400 µg/mL (≈ 1600 µM)
- melting point: 152 °C

SMILES: Cc1ccc(NC(=O)Nc2onc3c2CCC3)cc1 [Example 20]
- melting point: 218 °C

SMILES: O=C(Nc1ccc(Cl)cc1)Nc1onc2c1CCC2 [Example 21]
- melting point: 225 °C

SMILES: Cc1ccc(NC(=O)Nc2onc3c2CCC3)c(C)c1 [Example 22]
- melting point: 230 °C

SMILES: S=C(Nc1ccccc1)Nc1onc2c1CCC2 [Example 23]
- melting point: 146 °C

SMILES: CC(C)S(=O)(=O)Nc1onc2c1CCC2 [Example 24]
- melting point: 91 °C

SMILES: Cc1ccc(S(=O)(=O)Nc2onc3c2CCC3)cc1 [Example 25]
- melting point: 112 °C

SMILES: CCCCC/C=N\c1onc2c1CCC2 [Example 27]
- melting point: 125 °C

SMILES: Fc1ccc(/C=N\c2onc3c2CCC3)cc1 [Example 28]
- melting point: > 260 °C

SMILES: Clc1ccc(/C=N\c2onc3c2CCC3)cc1 [Example 29]
- melting point: 190 °C

SMILES: Cc1ccc(/C=N\c2onc3c2CCC3)cc1 [Example 30]
- melting point: 238 °C

SMILES: COc1ccc(/C=N\c2onc3c2CCC3)cc1 [Example 31]
- melting point: 249 °C

SMILES: FC(F)(F)c1ccc(/C=N\c2onc3c2CCC3)cc1 [Example 32]
- melting point: > 260 °C

SMILES: C(=N/c1onc2c1CCC2)/c1ccccn1 [Example 33]
- melting point: 167 °C

SMILES: CCCCC(CC)COC(=O)N(C(=O)OCC(CC)CCCC)c1onc2c1CCC2 (stereo not drawn) [Example 34]
- MIC [1, 2]: 100 µg/mL (≈ 229 µM)
- MIC [1, 3]: 50 µg/mL (≈ 115 µM)

SMILES: C=C(C)OC(=O)N(C(=O)OC(=C)C)c1onc2c1CCC2 [Example 35]
- MIC [1, 2]: 10 µg/mL (≈ 34.2 µM)
- MIC [1, 3]: 10 µg/mL (≈ 34.2 µM)

SMILES: O=C(OCC(Cl)(Cl)Cl)N(C(=O)OCC(Cl)(Cl)Cl)c1onc2c1CCC2 [Example 36]
- MIC [1, 2]: 10 µg/mL (≈ 21.1 µM)
- MIC [1, 3]: 5 µg/mL (≈ 10.5 µM)

SMILES: CC(C)COC(=O)N(C(=O)OCC(C)C)c1onc2c1CCC2 [Example 37]
- MIC [1, 2]: 10 µg/mL (≈ 30.8 µM)
- MIC [1, 3]: 5 µg/mL (≈ 15.4 µM)

SMILES: C=COC(=O)N(C(=O)OC=C)c1onc2c1CCC2 [Example 38]
- MIC (Geotrichum candidum): 100 µg/mL (≈ 378 µM)
- MIC (Rhodotorula rubra): 100 µg/mL (≈ 378 µM)
- MIC (Fusarium solani): 50 µg/mL (≈ 189 µM)
- MIC [1, 2]: 50 µg/mL (≈ 189 µM)
- MIC [1, 3]: 20 µg/mL (≈ 75.7 µM)

SMILES: O=C(OCc1ccccc1)N(C(=O)OCc1ccccc1)c1onc2c1CCC2 [Example 40]
- MIC [1, 2]: 20 µg/mL (≈ 51 µM)
- MIC [1, 3]: 20 µg/mL (≈ 51 µM)

SMILES: O=C(OCCCl)N(C(=O)OCCCl)c1onc2c1CCC2 [Example 41]
- MIC (Geotrichum candidum): 500 µg/mL (≈ 1480 µM)
- MIC (Rhodotorula rubra): 200 µg/mL (≈ 593 µM)
- MIC (Fusarium solani): 200 µg/mL (≈ 593 µM)
- MIC [1, 2]: 10 µg/mL (≈ 29.7 µM)
- MIC [1, 3]: 5 µg/mL (≈ 14.8 µM)

SMILES: O=C(OCCBr)N(C(=O)OCCBr)c1onc2c1CCC2 [Example 42]
- MIC (Geotrichum candidum): 500 µg/mL (≈ 1170 µM)
- MIC (Rhodotorula rubra): 500 µg/mL (≈ 1170 µM)
- MIC (Fusarium solani): 200 µg/mL (≈ 469 µM)
- MIC [1, 2]: 10 µg/mL (≈ 23.5 µM)
- MIC [1, 3]: 5 µg/mL (≈ 11.7 µM)

SMILES: C=CCOC(=O)N(C(=O)OCC=C)c1onc2c1CCC2 [Example 43]
- MIC [1, 2]: 20 µg/mL (≈ 68.4 µM)
- MIC [1, 3]: 10 µg/mL (≈ 34.2 µM)
